# Results: a melting point compilation (Tetko et al.; mined from patent text by program, amines drawn as free bases though some values may be those of a salt)
row,Structure (SMILES),melting point
1,CC(C)(C)c1cc(C2N(c3ccc(Cl)cc3)CCN2c2ccc(Cl)cc2)cc(C(C)(C)C)c1O,220 to 222 °C
2,CCSC(N)=C(C#N)C#N,180 to 182 °C
3,CC(C)c1cc2nc(N)[nH]c(=O)c2cc1-c1ccc(Cl)cc1,326 to 330 °C
4,O=c1c2c[nH]c3ccccc3c-2nn1-c1nccs1,> 350 °C
5,COc1ccc(NC(=O)NCc2ccc(-n3c(-c4cccnc4N)nc4cccnc43)cc2)cc1,224 to 226 °C
6,CCc1cnc2c(NC(=O)c3c(Cl)cccc3Cl)cccc2c1-n1ccnc1,187 to 188 °C
7,Cc1noc(NC(=O)N2CCN(c3cc(-c4ccccc4F)ncn3)CC2)c1C,189 to 190 °C
8,Cc1nc2ccc3ccc(CNc4ccc(C(=O)O)c(F)c4)cc3c2c(=O)[nH]1,> 250 °C
9,CN(C)c1ccc(C2(c3ccc(N(C)C)cc3N(C)C)OC(=O)c3c(Cl)c(Cl)c(Cl)c(Cl)c32)cc1 (centres undefined),227 to 229 °C
10,O=C1CCC(N2Cc3cc(CNC(=O)c4cccc(Cl)c4)ccc3C2=O)C(=O)N1 (centres undefined),293 to 295 °C
11,COc1cccc2c1C(=O)C(=O)N2,198 to 200 °C
12,CN(C)Cc1ccc(CSCCNc2[nH]ccc2[N+](=O)[O-])o1,67 °C
13,Cc1ccc(C(=O)NCc2ccccc2)cc1-c1nc(NCCN(C)C(=O)OC(C)(C)C)nc2c1CNC(=O)N2c1c(F)cccc1F,160 to 163 °C
14,CCCc1nc2cc3c(cc2[nH]1)NC(=O)C3(C)C(=O)OCC (centres undefined),258 to 261 °C
15,Cn1c(SC(C(=O)O)c2ccccc2)nc2ccccc21 (centres undefined),157 to 159 °C
16,CC(C)C(C(N)=O)N(C)C(=O)OC(C)(C)C (centres undefined),181 to 183 °C
17,CC(=O)Oc1cccc(C(=O)N[C@@H](Cc2ccccc2)[C@H](O)C(=O)O)c1C,189 to 191 °C
18,O=C(Cc1ccccc1)N1CC2CCC(C1)O2,106 °C
19,CCOC(=O)c1[nH]c2c(C)ccc(C)c2c1-c1ccccc1,107 to 108 °C
20,Cc1cc2c(nc3n2CCC3)c([N+](=O)[O-])c1Br,201 to 203 °C
21,COC(=O)CN(C)c1cccc(Br)n1,47 to 48 °C
22,CCCn1c(=O)c2[nH]c(/C=C/c3cc(OC)c(OCc4ccccc4)c(OC)c3)nc2n(CCC)c1=O,221 °C
23,CC(C)(C=NO)n1ccnc1,117 to 120 °C
24,O=c1cc(CO)n2c(n1)COc1ccccc1-2,235 to 237 °C
25,CCOC(=O)C1CCc2c(oc3cc(NC(C)=O)ccc23)C1 (centres undefined),115 to 116 °C

row,Structure (SMILES),melting point
1,COC(=O)CCc1cnoc1-c1ccc(Cl)s1,34 to 35 °C
2,Nc1cccc(-c2n[nH]c3ncnc(Nc4cccc(Cl)c4)c23)c1,264 to 266 °C
3,C[C@H](C#Cc1ccc(CCc2ccc(F)cc2)s1)N(O)C(N)=O,126 to 128 °C
4,CC(C)CSc1ccnc(OS(C)(=O)=O)c1,34 to 35 °C
5,COc1ccc2c(c1)C(c1ccc(N)cc1)=NN(C(=O)C1CC1)C(C)=C2,214 to 216 °C
6,COC(=O)C1=CSCC1OC (centres undefined),79 to 81 °C
7,CS(=O)(=O)N1CN(C(=O)c2c(F)cccc2F)C(=O)N(c2ccc(Cl)cc2)C1,178 °C
8,O=C1CCCCCC1c1ncc[nH]1 (centres undefined),68 to 69 °C
9,CCCNC(=O)Cc1cnc2cccc(C)n2c1=O,96 to 98 °C
10,N#Cc1ccc(C2C(=O)N(Cc3ccc(F)cc3)Cc3cncn32)cc1 (centres undefined),132 to 135 °C
11,Nc1c(-c2ccc(Cl)cc2Cl)nnn1Cc1ccc(O)cc1,172 to 174 °C
12,N#Cc1ccc(-c2cccc(C=O)n2)cc1,158 to 159 °C
13,CCOC(=O)C(CCCCCN1C(=O)c2ccccc2C1=O)(NC(C)=O)C(=O)OCC,70 to 72 °C
14,N#Cc1ccc(O)cc1C(N)=O,268 to 270 °C
15,CCCCN(CCCC)C(=O)c1c(C)n(CCc2ccccc2)c2cc(C(=O)CC)c(O)c(CN3CCCCC3)c12,111 to 112 °C
16,O=C(O)COc1cccc2c1CCC(COC(=O)N(c1ccccc1)c1ccccc1)C2 (centres undefined),137 to 142 °C
17,CCc1cc(NC(C)=O)cc(CC)n1,74 to 78 °C
18,CCOC(=O)NC(=CC(=O)[C@H](Cc1ccccc1)N(Cc1ccccc1)Cc1ccccc1)Cc1ccccc1,91 to 93 °C
19,COc1ccc(SCCSc2ccc(OC)cc2)cc1,108 to 110 °C
20,Cn1nc(C=NO)nc1NCCCOc1cccc(CN2CCCCC2)c1,173 to 174 °C
21,O=C(CN1CCN(c2ccccc2F)CC1)Nc1ccc2c(c1NC(=O)c1ccccc1)C(=O)c1ccccc1C2=O,228 to 229 °C
22,CCC(CC)(CO)NC(=S)NC(=O)c1ccccc1,161 to 163 °C
23,COc1ccc2c3c(c(=O)oc2c1OC)CN(Cc1ccccc1)CC3,138 to 140 °C
24,COc1cc(N2CCN(C)CC2)ccc1-c1cnn2c(N)c(-c3cccc(O)c3)cnc12,217 to 220 °C
25,Cc1nc(N2CCN(Cc3ccc4nsnc4c3)C2=O)sc1C(=O)NCc1cccnc1,105 to 107 °C

row,Structure (SMILES),melting point
1,Cc1nc(C)c(C(=O)OCC2CCCO2)c(-c2cccc([N+](=O)[O-])c2)c1C(=O)OCC1CCCO1 (centres undefined),75 to 77 °C
2,O=C1Nc2ccc(F)cc2C1c1ncnc2c1cnn2C1CCCC1 (centres undefined),254 to 257 °C
3,CC(C)(C)C(O)(CCC1CCCCC1)Cn1cncn1 (centres undefined),63 to 67 °C
4,CC(C(=O)O)c1ccc(-c2ccc(F)cc2F)c(F)c1 (centres undefined),105 to 108 °C
5,CCCCCCCC1CC(C(=O)Nc2c(C(C)C)cccc2C(C)C)C(=O)O1 (centres undefined),95 to 98 °C
6,COc1ccc2c(c1)[C@H]1Cc3ccccc3[C@H]1N2 (relative stereo),101 °C
7,CCCCc1nc(Cl)c(CO)n1Cc1ccc(OCc2ccccc2)cc1,115 to 116 °C
8,CCCNC(=Nc1ccccc1N1CCOCC1)NCCC,212 to 214 °C
9,CC(C)ON=C(C(=O)O)c1ccccc1,59.5 °C
10,CCCCCCCN(CC)CCC(O)c1ccc(NS(C)(=O)=O)cc1 (centres undefined),74 to 75 °C
11,CCC(c1oc2ccccc2c(=O)c1-c1ccccc1)n1cnc2c(N)ncnc21 (centres undefined),223 to 225 °C
12,Cc1c(O)cccc1C(=O)N[C@@H](Cc1ccccc1)[C@H](O)C(=O)N1CSC(C)(C)[C@H]1C(=O)N[C@@H](C)c1ccccc1,114 to 115 °C
13,Nc1ccc2nc(-c3ccccc3)cc(OCC(=O)N3CCOCC3)c2c1,194 °C
14,CC1(c2nn(-c3c(Cl)cc(C(F)(F)F)cc3Cl)c(N)c2C#N)CC1(Cl)Cl (centres undefined),209 to 210 °C
15,C=CC(=O)N1CC(c2ccccc2)c2ccccc21 (centres undefined),77 to 78 °C
16,COC(=O)[C@H](Cc1ccc([N+](=O)[O-])cc1)NC(=O)c1c(C)cccc1Cl,120 to 123 °C
17,CSc1cc(C(F)(F)F)nn1-c1ccc(NC(=O)c2ccncc2F)cc1,142 to 143 °C
18,CC1Cc2ccc(N3C(=O)C4=C(CCCC4)C3=O)cc2O1 (centres undefined),114 to 118 °C
19,Cc1onc(-c2ccccc2)c1-c1ccc(S(N)(=O)=O)cc1,171 to 174 °C
20,COc1c(Br)c(-c2ccc(C(C)(C)C)s2)cc2oc(=O)c(C)c(C)c12,170 °C
21,NS(=O)(=O)c1ccc2c(c1)CNC(C1CCCCC1)N2 (centres undefined),178 to 180 °C
22,N#Cc1ccc(N2C(=O)NC3(CCS(=O)CC3)C2=O)cc1C(F)(F)F (centres undefined),260 to 277 °C
23,CC(C)(C)c1cc(-c2nn(Cc3ccc([N+](=O)[O-])cc3)c3ncccc23)cc(C(C)(C)C)c1O,143 to 145 °C
24,N#Cc1ccc(N(Cc2ccccc2)n2cnnc2)cc1-c1ccc(O)cc1,229 to 230 °C
25,CN1CCN(C(=O)/C=C/CSc2nc(N)cc(Cl)n2)CC1,155 to 156 °C

row,Structure (SMILES),melting point
1,O[C@@H](CNCC1CCN(CCC(F)(F)F)CC1)COc1ccc(Br)c2[nH]c3ccccc3c12,79 °C
2,CC(C)Cc1ccc(C(C)C(N)=O)cc1 (centres undefined),84 to 86 °C
3,Cc1cccc2c(=O)[nH]c(N3CCC(N(C)C)CC3)cc12,217 to 218 °C
4,O=C1c2ccccc2C(=O)N1Cc1cnc2n1-c1ccc(Cl)cc1C(c1ccccc1Cl)=NC2,218 to 220 °C
5,NC(CC(c1ccccc1)c1ccccc1)(C(=O)O)C1CC(C(=O)O)(C(=O)O)C1 (centres undefined),182 to 185 °C
6,CN(C)CCCn1c2c(c3cc(Br)ccc31)CCS(=O)(=O)CCC2,135 to 137 °C
7,CCOCc1cc2ccccc2oc1=Nc1ccc(Cl)cc1,84 to 86 °C
8,O=C(O)c1cccc([N+](=O)[O-])c1SCCO,91 to 93 °C
9,CN(C)C1CNc2c(cc(Br)cc2[N+](=O)[O-])C1 (centres undefined),88 to 91 °C
10,O=C(O)c1ccccc1-c1cc(-c2ccccc2)[nH]n1,204 to 206 °C
11,CCOC(=O)C(c1ccc(CN2CCOCC2)cn1)c1cc(C#N)ccc1[N+](=O)[O-] (centres undefined),83 to 84 °C
12,CC(=O)NC(c1ccc(Cl)cc1)(c1ccc2c(c1)c(-c1nc(-c3ccccc3)cs1)cc(=O)n2C)c1cncn1C (centres undefined),244 °C
13,CCCc1nn2ncc(C(=O)O)c2n1Cc1ccc(-c2ccccc2-c2nc(=O)o[nH]2)cc1,223 to 225 °C
14,Cc1cc2c(cc1OCC(=O)O)C(C)(C)CC1(CC(C)(C)c3cc(OCC(=O)O)c(C)cc3O1)O2,> 260 °C
15,Oc1ccc(Nc2nc(NCc3ccco3)nc(Nc3ccc4[nH]ccc4c3)n2)cc1,258 to 260 °C
16,O=C1CCC(O)(c2ccc(Cl)cc2)CC1,138 to 139 °C
17,CN(C)C1CCC(O)(c2ccccc2Cc2ccccc2)CC1 (centres undefined),140 to 141 °C
18,CCSC1(c2ccc(Cl)cc2)OC(c2ccncc2)=Nc2ccccc21 (centres undefined),138 to 139 °C
19,OCc1cccc(Oc2nn(Cc3ccccc3)c3ccccc23)n1,156 to 158 °C
20,O=C1CCCC2=C1OC(CC(=O)c1ccccc1)(c1ccccc1)C=C2c1ccccc1 (centres undefined),178 to 179 °C
21,O=C(NCCO)c1cccc(-c2cccc3c2OC(Cc2cccc(C(F)(F)F)c2)C3)c1 (centres undefined),161 to 162 °C
22,CC(C)(C)c1cc(C(=O)NNC(=O)c2occ(-c3ccccc3)c2-c2ccccc2)ccc1O,244 to 247 °C
23,O=C(Nc1ccc(Oc2ccnc(N3CCC(O)CC3)n2)c2ccccc12)c1cc(F)cc(N2CCCCC2)c1,182 to 184 °C
24,CC(C)CCOc1ccc(S(=O)(=O)C2(C(=O)O)CCN(Cc3ccccc3)CC2)cc1,106 °C
